{"source": "patent US12678438B2", "about": "“Treatment of cancer with CDK inhibitors” (THE TRUSTEES OF THE UNIVERSITY OF PENNSYLVANIA, priority 2019, dated 2026)", "key": {"[1]": {"test_system": "MED1 and AR recruitment to the chromatin", "assay": "ChIP-seq of genome-wide MED1 and AR binding", "format": "cell-based, human", "conditions": "DHT-treated VCaP and LNCaP, THZ1", "description": "ChIP was performed using iDeal ChIP-seq Kit for Transcription Factors (Diagenode, C01010170) according to manufacturer's protocol. In brief, the cells were crosslinked with 1% formaldehyde in culture medium for 10 min at room temperature. Cross-linking was terminated by the addition of 1/10 volume 1.25 M glycine for 5 min at room temperature followed by cell lysis and sonication (Bioruptor, Diagenode), resulting in an average chromatin fragment size of 200 bp. Chromatin equivalent to 5×10^6 cells was isolated and incubated with 10 μg antibody overnight at 4° C. (MED1, H3-acetyl K27, AR, and IgG (Diagenode). ChIP-seq libraries were prepared from the ChIP-enriched DNA samples using the TruSeq ChIP Library Preparation Kit (Illumina, IP-202-1012, IP-202-1024) and protocol. In brief, ChIP-enriched DNA (1-10 ng) was converted to blunt-ended fragments. A single A-base was added to fragment ends followed by ligation of Illumina adaptors. The adaptor-modified DNA fragments were enriched by PCR using the Illumina Barcode primers and Phusion DNA polymerase. PCR products were size selected using 3% NuSieve agarose gels (Lonza) followed by gel extraction using QIAEX II reagents (QIAGEN). Libraries were quantified with the Bioanalyzer 2100 (Agilent) and sequenced on the Illumina NextSeq 500 Sequencer (75 nucleotide read length).\nSequencing reads were quality checked with FASTQC (www.bioinformatics.babraham.ac.uk/projects/fastqc) and aligned to the GRCh37 (release 27) genome using the STAR v2.5.1 aligner with default settings. PCR duplicate reads in the aligned bam files were removed using samtools, bam files were converted to CPM normalized bigwig tracks using deeptools, and viewed using the Integrated Genomics Viewer or the UCSC genome browser. Single end reads were extended up to the fragment length (200 bp) along the read direction.\nThe enrichment peaks for the various transcription factors and histone marks were computed using MACS2, with default settings. Regions found to ubiquitously enriched across a number of next-generation sequencing experiments, also known as the blacklisted peaks (sites.google.com/site/anshulkundaje/projects/blacklists), were excluded in all subsequent analysis."}, "[2]": {"test_system": "DHT-induced AR target genes", "assay": "RNA-seq of DHT-stimulated VCaP and LNCaP cells", "format": "cell-based, human", "conditions": "10 nM DHT with 100 nM THZ1", "description": "For AR signaling stimulation experiments, cells were plated in complete media at required confluency. After 24 h cells were washed with DPBS and cultured in RPMI/DMEM without Phenol Red (Invitrogen, 11835030) and 10% charcoal-dextran stripped FBS (Gemini BioProducts, 100-119) for 72 h. Cells were then stimulated with 10 nM DHT for the specific time points.\nRNA-seq libraries were constructed using the TruSeq sample Prep Kit V2 (Illumina) according to the manufacturer's instructions. Briefly, 1 μg of purified RNA was poly-A selected and fragmented with fragmentation enzyme. […] The DNA library was quantitated using Qubit and normalized to 4 nM prior to pooling. […] Library pools were clustered and run on Nextseq500 platform (Illumina Inc.) with single-end reads of 75 bases.\nSingle-end sequencing reads were demultiplexed using Illumina bcl2fastq, quality checked using FASTQC (bioinformatics.babraham ac uk/projects/fastqc), and aligned to the GRCh37 (release 27) genome using the STAR v2.5.1 aligner, with default settings. The read statistics generated by STAR v2.5.1 was used to ensure that the aligned reads in all samples were over 90% of the total reads. […]\nGenes differentially expressed between any two sets of treatment were determined using DESeq2 (bioconductor.org/packages/release/bioc/html/DESeq.html), a statistical tool that employs shrinkage estimates to compute fold changes. […]"}, "[3]": {"test_system": "AR-negative DU145 xenografts", "assay": "DU145 mouse xenograft", "format": "in vivo", "conditions": "10 mg/kg b.i.d., four weeks", "description": "In vivo efficacy studies were performed in accordance with protocols approved by the Institutional Animal Care and Use Committee (IACUC) at the University of Pennsylvania and in compliance with all regulatory standards. Four to five-week-old male NOD SCID gamma mice (Jackson Lab, 005557) were procured from Jackson Laboratory. In the VCaP experiment, 2×10^6 VCaP prostate cancer cells suspended in 80 μL of RPMI-1640 with 50% Matrigel (BD Biosciences) were implanted subcutaneously into the dorsal flank of the mice. The animals were castrated when the tumor volumes reached approximately 150 mm^3. […] Tumor growth was recorded using digital calipers and tumor volumes were estimated using the formula (π/6) (L×W^2), where L=length and W=width of tumor. Body weight during the study was also monitored. At the end of the treatment regimen the mice were sacrificed and were extracted for further analysis.\nXenograft tumor pieces were fixed in 4% of formaldehyde for 48 h and paraffin embedded. Paraffin embedded sections from the tumors of treated and untreated mice were deparaffinized, rehydrated and subjected to epitope retrieval stained with a phospho-MED1 antibody (1:4000/1:2000), anti-PSA antibody (1:1000), anti-Ki67 (1:500), or anti-cleaved caspase3 antibody (1:1000) followed by peroxidase-based detection and counterstaining with hematoxylin using the Leica Bond Rxm system. Photographs were taken on a Leica DMI6000B inverted light and fluorescent microscope with a 20× objective. images were assessed and quantified in ImageJ."}, "CDK7": {"target": "CDK7 (Homo sapiens, UniProt P50613)", "sequence (P50613 whole entry)": "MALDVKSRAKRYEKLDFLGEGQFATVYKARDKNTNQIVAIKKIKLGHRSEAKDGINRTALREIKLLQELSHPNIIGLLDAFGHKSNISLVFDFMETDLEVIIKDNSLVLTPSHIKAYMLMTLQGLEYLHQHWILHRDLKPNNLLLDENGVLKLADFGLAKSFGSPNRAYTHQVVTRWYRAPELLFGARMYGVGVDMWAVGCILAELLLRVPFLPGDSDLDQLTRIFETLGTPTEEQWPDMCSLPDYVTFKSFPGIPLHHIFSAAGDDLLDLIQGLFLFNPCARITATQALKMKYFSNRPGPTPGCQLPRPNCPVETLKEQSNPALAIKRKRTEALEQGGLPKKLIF", "sequence (P51946 whole entry partner)": "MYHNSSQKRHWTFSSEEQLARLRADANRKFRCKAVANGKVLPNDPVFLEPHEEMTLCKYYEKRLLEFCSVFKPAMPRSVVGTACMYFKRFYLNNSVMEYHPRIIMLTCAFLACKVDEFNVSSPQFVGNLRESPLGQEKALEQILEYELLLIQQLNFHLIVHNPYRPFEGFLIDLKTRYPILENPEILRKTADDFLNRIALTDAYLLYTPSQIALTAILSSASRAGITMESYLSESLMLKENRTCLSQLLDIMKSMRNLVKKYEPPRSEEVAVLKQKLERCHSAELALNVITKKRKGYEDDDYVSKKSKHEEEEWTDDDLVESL", "sequence (P51948 whole entry partner)": "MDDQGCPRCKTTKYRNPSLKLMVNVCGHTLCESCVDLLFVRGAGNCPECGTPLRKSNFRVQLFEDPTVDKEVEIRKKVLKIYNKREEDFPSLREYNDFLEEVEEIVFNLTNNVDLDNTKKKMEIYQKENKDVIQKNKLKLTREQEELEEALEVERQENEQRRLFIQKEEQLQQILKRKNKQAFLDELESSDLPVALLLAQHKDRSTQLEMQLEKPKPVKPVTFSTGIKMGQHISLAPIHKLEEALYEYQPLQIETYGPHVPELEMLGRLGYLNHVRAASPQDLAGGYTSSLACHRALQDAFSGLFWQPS", "assay": "Luminescence-based CDK7 kinase activity on MED1 peptide", "format": "biochemical", "conditions": "varying concentration of THZ1", "protocol": "For luminescence-based CDK7 kinase activity analysis wild type MED1-peptide “[sequence]” and mutant MED1-peptide “[sequence]” (GenScript, U2051EC280_1, U2051EC280_3) were used. Following the above protocol, briefly after 60 min incubation, post addition of CAK complex, ADP-GLOW reagent (Promega, V6930) was thawed and 25 ul of the reagent was added to each well, the plate was covered with aluminum foil and incubated at room temperature (RT) for 45 min. After the incubation Kinase-Detection reagent (BPS Bioscience, 79603) was thawed and 50 ul of the reagent was added to each well and incubated for another 45 min at RT under dark conditions. After 45 min incubation luminescence was measured using the microplate reader (Note: in luminescence-based kinase assay, CAK-complex+CTD-peptide (BPS Bioscience)+ATP was used as a positive control, were as CAK complex+Human MED1 protein without ATP was used as a negative control to subtract the background readings)."}}}
{"smiles": "CN(C)C/C=C/C(=O)Nc1ccc(C(=O)Nc2cccc(Nc3ncc(Cl)c(-c4c[nH]c5ccccc45)n3)c2)cc1", "note": "[THZ1]", "values": [{"measurement": "genome-wide AR recruitment (ChIP-seq)", "setting": "[1]", "result": "significantly limited AR recruitment"}, {"measurement": "genome-wide MED1 recruitment (ChIP-seq)", "setting": "[1]", "result": "blocked MED1 recruitment entirely"}, {"measurement": "genome-wide DHT-induced differentially expressed AR target genes", "setting": "[2]", "result": "completely reversed almost all"}, {"measurement": "tumor Ki-67", "setting": "[3]; vs vehicle", "result": "lower Ki-67"}, {"measurement": "tumor apoptosis", "setting": "[3]; vs vehicle", "result": "increased apoptosis"}, {"measurement": "tumor p-MED1 levels", "setting": "[3]; vs vehicle", "result": "reduced p-MED1 levels"}, {"measurement": "tumor growth", "setting": "[3]; castrated mice", "result": "tumor growth inhibition"}, {"measurement": "CDK7-mediated phosphorylation of the T1457 wildtype peptide", "setting": "CDK7", "result": "inhibited by THZ1 treatment in a dose-dependent manner"}]}
